Measurements from patent publication US20260226019A1, “NEGATIVE ALLOSTERIC MODULATORS OF METABOTROPIC GLUTAMATE RECEPTOR 2” (Vanderbilt University, priority 2023, published 2026).

Target: T1, human mGlu2 (Homo sapiens, UniProt Q14416)
T1 construct: expressed in transfected cells; host or cells: HEK-293 stably co-expressing GIRK channels
Test: mGlu GIRK cell-based thallium flux assay, human mGlu2
Conditions: HEK-293 cells co-expressing human mGlu2 and GIRK, EC80 glutamate, single experiment
Protocol: Human embryonic kidney (HEK-293) cell lines stably co-expressing human or rat mGlu2 and G protein-coupled inwardly rectifying potassium (GIRK) channels, or human mGlu3 and GIRK, were used for in vitro evaluation of compound activity in thallium flux assay using a fluorescent thallium indicator dye.
The day before the assay, GIRK cells co-expressing human mGlu3, human or rat mGlu2, as described above, were plated in black-walled, clear-bottomed, amine-coated 384-well plates at a density of 15,000 cells/[…]/well in the assay medium (glutamine-depleted basal DMEM supplemented with 10% dialyzed FBS, 20 mM HEPES, 1 mM sodium pyruvate). Cells were incubated at 37° C. in the presence of 5% CO2. The next day, assay buffer (Hanks balanced salt solution, 20 mM HEPES, 4.16 mM sodium bicarbonate, pH 7.2) was prepared to dilute compounds and Thallos AM fluorescent dye solution. The 2× Thallos dye solution (final concentration 0.34 μM to the cells) was prepared by mixing the dye stock (2.97 mM in DMSO) to 1:1 with 10% pluronic acid before adding to the assay buffer. Cells were washed with assay buffer using a microplate washer to remove the medium, resulting in 20 μL of buffer remaining in each well. […] During the cell dye loading incubation period, a 10-point concentration serial dilution of compound was created from a 10 mM DMSO compound stock by performing a 1:3 serial dilution in DMSO using the Bravo liquid handler. The 2× compound plate was generated by transferring 0.24 μL of the diluted compound in each well to a daughter plate using an Echo acoustic liquid handler. This is further diluted in 40 μL assay buffer, resulting in a range from […] to 1.5 nM final concentration in the assay. The agonist plate (5×) was prepared to include EC80 glutamate concentration (a concentration to elicit 80% of a maximally effective glutamate concentration) in thallium buffer (125 mM sodium bicarbonate, 1 mM magnesium sulfate, 1.8 mM calcium sulfate, 5 mM glucose, 10 mM HEPES, pH 7.2, 12.5 mM thallium sulfate).
After dye-loading, cell plates were washed with assay buffer to remove excess extracellular dye using a microplate washer, resulting in 20 μL of buffer remaining in each well. After a ten-minute equilibration period, cell, compound and agonist plates were loaded into a Hamamatsu μCell kinetic imaging plate reader equipped with liquid handler to monitor fluorescence changes at 480 nm excitation and 540 nm emission settings. Briefly, after collection of baseline fluorescence, 20 μL of compound was added and incubated for two minutes and twenty seconds. This is immediately followed by adding 10 μL of glutamate-thallium buffer to the wells containing compound. The fluorescent signal was monitored an additional 2.5 minutes after the glutamate addition. Multiple reference wells containing no compound received either no glutamate (for a baseline reference), EC80 glutamate, or ECmax glutamate (for normalization to maximum response). […] Each compound concentration series occurred one time in each plate, and replicates from two or three plates were used in each experimental run. Thallium solutions were handled and disposed of according to guidelines from the Vanderbilt University Chemical Safety department.
Data were normalized using a static ratio function (F/F0) by dividing every fluorescent measurement by the initial fluorescent value for the corresponding well. The increase in signal resulting from the glutamate/thallium addition of the second add was measured by determining the slope from 3 seconds to 13 seconds after the addition. The average of all baseline slopes (no compound, no glutamate) was determined and this value was subtracted from all other slope values. The average of all ECmax slopes was determined and this value was used to normalize the baseline-corrected slopes to a percent max value (% Emax).

T1 sequence (Q14416 19-872): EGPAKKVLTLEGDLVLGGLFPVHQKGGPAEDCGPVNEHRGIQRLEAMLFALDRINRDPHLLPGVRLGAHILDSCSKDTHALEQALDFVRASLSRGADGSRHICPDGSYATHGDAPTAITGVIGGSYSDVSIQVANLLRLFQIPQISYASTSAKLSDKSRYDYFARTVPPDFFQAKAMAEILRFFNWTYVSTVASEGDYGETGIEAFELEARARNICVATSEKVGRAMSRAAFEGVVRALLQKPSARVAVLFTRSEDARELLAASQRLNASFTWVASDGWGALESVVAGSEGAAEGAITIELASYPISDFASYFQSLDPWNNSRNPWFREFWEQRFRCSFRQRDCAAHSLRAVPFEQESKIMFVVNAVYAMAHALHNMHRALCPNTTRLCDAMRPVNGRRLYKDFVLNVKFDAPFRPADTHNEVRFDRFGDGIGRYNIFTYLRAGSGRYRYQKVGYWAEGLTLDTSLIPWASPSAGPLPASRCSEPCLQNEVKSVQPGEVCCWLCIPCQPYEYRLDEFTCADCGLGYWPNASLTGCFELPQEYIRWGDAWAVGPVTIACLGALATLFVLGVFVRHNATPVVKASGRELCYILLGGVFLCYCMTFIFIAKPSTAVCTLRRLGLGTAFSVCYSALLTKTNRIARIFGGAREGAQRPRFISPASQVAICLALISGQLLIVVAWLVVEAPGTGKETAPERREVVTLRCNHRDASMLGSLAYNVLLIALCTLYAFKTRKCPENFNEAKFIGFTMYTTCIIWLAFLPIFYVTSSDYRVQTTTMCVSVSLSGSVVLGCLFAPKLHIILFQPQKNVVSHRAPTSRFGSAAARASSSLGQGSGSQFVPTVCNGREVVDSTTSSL

SMILES | Human mGlu2 GIRK IC50 (nM) | IC50 [nM]
COc1ccc(-c2cc3c(c(-c4cnsc4)c2)CNC3=O)c(F)c1 [Compound 44, 6-(2-fluoro-4-methoxyphenyl)-4-(isothiazol-4-yl)isoindolin-1-one] | – | 3560
O=C1NCc2c1cc(-c1ccc(F)cc1F)cc2-c1ccc2nccnc2c1 [Compound 27, 6-(2,4-difluorophenyl)-4-(quinoxalin-6-yl)isoindolin-1-one] | – | 1830
N#Cc1ccc(-c2cc3c(c(-c4cnsc4)c2)CNC3=O)c(F)c1 [Compound 43, 3-fluoro-4-(7-(isothiazol-4-yl)-3-oxoisoindolin-5-yl)benzonitrile] | – | 5070
O=C1NCc2c1cc(-c1ccc(F)cc1F)cc2-c1cnn(C2CCCCC2)c1 [Compound 21, 4-(1-cyclohexyl-1H-pyrazol-4-yl)-6-(2,4-difluorophenyl)isoindolin-1-one] | Inactive | –
Cc1sc(C)c(-c2cc(-c3ccc(F)cc3F)cc3c2CNC3=O)c1C [Compound 20, 6-(2,4-difluorophenyl)-4-(2,4,5-trimethylthiophen-3-yl)isoindolin-1-one] | – | 5260
O=C1NCc2c1cc(-c1ccc(F)cc1F)cc2-c1ccco1 [Compound 29, 6-(2,4-difluorophenyl)-4-(furan-2-yl)isoindolin-1-one] | Inactive | –
O=C1NCc2c1cc(-c1ccc(F)cc1F)cc2-c1ccc(F)cc1F [Compound 4, 4,6-bis(2,4-difluorophenyl)isoindolin-1-one] | – | 2070
O=C1NCc2c1cc(-c1ccc(F)cc1F)cc2-c1ccnnc1 [Compound 12, 6-(2,4-difluorophenyl)-4-(pyridazin-4-yl)isoindolin-1-one] | – | 1120
O=C1NCc2c1cc(-c1ccc(F)cc1F)cc2-c1ccsc1 [Compound 15, 6-(2,4-difluorophenyl)-4-(thiophen-3-yl)isoindolin-1-one] | – | 3230
O=C1NCc2c1cc(-c1ccc(F)cc1F)cc2-c1cnc2ccccc2c1 [Compound 25, 6-(2,4-difluorophenyl)-4-(quinolin-3-yl)isoindolin-1-one] | – | 3310
O=C1NCc2c1cc(-c1ccc(F)cc1F)cc2-c1cc2ccccc2s1 [Compound 28, 4-(benzo[b]thiophen-2-yl)-6-(2,4-difluorophenyl)isoindolin-1-one] | Inactive | –
Cn1cc(-c2cc(-c3ccc(F)cc3F)cc3c2CNC3=O)cc1C#N [Compound 14, 4-(6-(2,4-difluorophenyl)-1-oxoisoindolin-4-yl)-1-methyl-1H-pyrrole-2-carbonitrile] | – | 3080
O=C1NCc2c1cc(-c1ccc(F)cc1F)cc2-c1cnc(C(F)(F)F)nc1 [Compound 32, 6-(2,4-difluorophenyl)-4-(2-(trifluoromethyl)pyrimidin-5-yl)isoindolin-1-one] | – | 3130
O=C1NCc2c1cc(-c1ccc(F)cc1F)cc2-c1cnn(C(F)F)c1 [Compound 8, 4-(1-(difluoromethyl)-1H-pyrazol-4-yl)-6-(2,4-difluorophenyl)isoindolin-1-one] | – | > 10000

Second part, the compound after the results:

Human mGlu2 GIRK IC50 (nM) | IC50 [nM] | SMILES
Inactive | – | Cc1cc(-c2cc3c(c(-c4cnsc4)c2)CNC3=O)c(F)cc1C#N [Compound 51, 5-fluoro-4-(7-(isothiazol-4-yl)-3-oxoisoindolin-5-yl)-2-methylbenzonitrile]
– | 1700 | CC(C)n1nccc1-c1cc(C2CCOCC2)cc2c1CNC2=O [Compound 88, 4-(1-isopropyl-1H-pyrazol-5-yl)-6-(tetrahydro-2H-pyran-4-yl)isoindolin-1-one]
Inactive | – | COc1cc(F)c(-c2cc3c(c(-c4cnsc4)c2)CNC3=O)cc1F [Compound 52, 6-(2,5-difluoro-4-methoxyphenyl)-4-(isothiazol-4-yl)isoindolin-1-one]
– | 118 | Cc1ccncc1-c1cc(-c2ccc(F)cc2F)cc2c1CNC2=O [Compound 89, 6-(2,4-difluorophenyl)-4-(4-methylpyridin-3-yl)isoindolin-1-one]
– | 258 | Cc1c(-c2cc(C3=CCOCC3)cc3c2CNC3=O)cnn1C [Compound 93, 6-(3,6-dihydro-2H-pyran-4-yl)-4-(1,5-dimethyl-1H-pyrazol-4-yl)isoindolin-1-one]
– | 286 | O=C1CC2(CN1)CN(c1cc(-c3ccc(F)cc3F)cc3c1CNC3=O)C2 [Compound A20, 6-(2,4-difluorophenyl)-4-(7-oxo-2,6-diazaspiro[3.4]octan-2-yl)isoindolin-1-one]
– | 2950 | Cc1c(-c2cc(C3CCOCC3)cc3c2CNC3=O)cnn1C [Compound 99, 4-(1,5-dimethyl-1H-pyrazol-4-yl)-6-(tetrahydro-2H-pyran-4-yl)isoindolin-1-one]
– | 433 | COc1cc(-c2cc(-c3ccc(F)cc3F)cc3c2CNC3=O)cc(C)n1 [Compound 91, 6-(2,4-difluorophenyl)-4-(2-methoxy-6-methylpyridin-4-yl)isoindolin-1-one]
Inactive | – | COc1cc(C#N)ccc1-c1cc2c(c(-c3cnsc3)c1)CNC2=O [Compound 53, 4-(7-(isothiazol-4-yl)-3-oxoisoindolin-5-yl)-3-methoxybenzonitrile]
– | 329 | O=C1NCc2c1cc(-c1ccc(F)cc1F)cc2C1CCCCO1 (stereo not drawn) [Compound B10, 6-(2,4-difluorophenyl)-4-(tetrahydro-2H-pyran-2-yl)isoindolin-1-one]
– | > 10000 | Cn1cc2c(n1)CN(c1cc(-c3ccc(F)cc3F)cc3c1CNC3=O)C2 [Compound A22, 6-(2,4-difluorophenyl)-4-(2-methyl-2,6-dihydropyrrolo[3,4-c]pyrazol-5(4H)-yl)isoindolin-1-one]
– | > 10000 | CCOc1ccc(-c2cc3c(c(-c4cnsc4)c2)CNC3=O)c(F)c1F [Compound 54, 6-(4-ethoxy-2,3-difluorophenyl)-4-(isothiazol-4-yl)isoindolin-1-one]
– | 380 | Cc1cc(-c2cc(C3=CCOCC3)cc3c2CNC3=O)n(C)n1 [Compound 96, 6-(3,6-dihydro-2H-pyran-4-yl)-4-(1,3-dimethyl-1H-pyrazol-5-yl)isoindolin-1-one]
– | 3480 | COc1ccc(-c2cc3c(c(-c4cnsc4)c2)CNC3=O)c(F)c1F [Compound 49, 6-(2,3-difluoro-4-methoxyphenyl)-4-(isothiazol-4-yl)isoindolin-1-one]
– | 195 | Cc1ncccc1-c1cc(C2=CCOCC2)cc2c1CNC2=O [Compound 97, 6-(3,6-dihydro-2H-pyran-4-yl)-4-(2-methylpyridin-3-yl)isoindolin-1-one]
– | > 10000 | O=C1NCc2c1cc(-c1cc(F)c(F)c(F)c1)cc2-c1cnsc1 [Compound 59, 4-(isothiazol-4-yl)-6-(3,4,5-trifluorophenyl)isoindolin-1-one]
– | 2070 | O=C1NCc2c1cc(-c1c(F)cc(F)cc1F)cc2-c1cnsc1 [Compound 45, 4-(isothiazol-4-yl)-6-(2,4,6-trifluorophenyl)isoindolin-1-one]
– | 303 | O=C1NCc2c1cc(-c1ccc(F)cc1F)cc2-c1ccnc(C(F)(F)F)c1 [Compound 90, 6-(2,4-difluorophenyl)-4-(2-(trifluoromethyl)pyridin-4-yl)isoindolin-1-one]
– | > 10000 | N#Cc1c(F)ccc(-c2cc3c(c(-c4cnsc4)c2)CNC3=O)c1F [Compound 55, 2,6-difluoro-3-(7-(isothiazol-4-yl)-3-oxoisoindolin-5-yl)benzonitrile]
